Patent publication US5744452A, “γ-L-glutamyl containing immunomodulator compounds and methods therewith” (Wei; Edward T., priority 1995, dated 1998)

How the values were obtained:
[1] = test system: rats; experiment: Subacute toxicity, repeated intramuscular injection, rats; assay type: in vivo
Experimental: (§1) To illustrate this point and in preparation for clinical studies, acute and sub-acute toxicity studies were conducted in animals with Bestim according to conditions of good-laboratory practices. Bestim, prepared as a sterile lyophitized powder in ampoules, was dissolved in sterile 0.9% NaCl solution and injected intramuscularly in all experiments.
Subacute Toxicity Studies: In a second set of experiments, Bestim was administered for longer durations, accordingly:
rats: 1 mg/kg and 100 mg/kg, administered intramuscularly daily for 3 months and for 6 months

[2] = test system: patient with sepsis; experiment: Case History 2: immunodeficiency caused by sepsis (Patient B); assay type: in vivo, human
Experimental: Patient B was in the clinic with a diagnosis of sepsis. Immunodeficiency was confirmed by laboratory tests. Bestim was administered in the standard 5 daily intramuscular doses of 0.1 mg.

[3] = test system: patients with disseminated cancer; experiment: Study in patients with disseminated cancer after anticancer therapy; assay type: in vivo, human; details: for Adhesion (%) / B-cells / B-cells (%) / Blastransformation, LPS / Blastransformation, PHA / Blastransformation, spontaneous / CD3 / CD3 (%) / CD4 / CD4 (%) / CD4/CD8 / CD8 / CD8 (%) / Cationic proteins / Chemiluminescence, luminol (induced) / Chemiluminescence, luminol (spontaneous) / IgA / IgG / IgM / Myeloperoxidase activity / NBT reduction test / NK activity (%) / NK-cells / NK-cells (%) / Stimulation index, LPS / Stimulation index, PHA: cancer patients
Experimental: Preliminary studies were conducted to characterize the immunomodulatory properties of Bestim in human subjects. The protocol for the human subjects studies were reviewed and approved by a Hospital Committee (Moscow Hospital N-24) and informed consent was obtained from all subjects. All 62 patients received by intramuscular injection 0.1 mg of Bestim dissolved in 1.5 to 2.0 ml of sterile saline, one injection per day for 5 days. Patients participating in the clinical trials were from 2 groups:
The first group consisted of 34 patients with disseminated cancer (29 with colon cancer, 2 with primary brain gliomas, 2 with stage III gastric cancer, 1 with stage IIIb breast cancer). These patients received Bestim therapy after standard anticancer therapy which included surgical treatment and chemotherapy with 5-fluorouracil. It should be noted here that the goal of Bestim therapy in these patients was not to treat the tumor but to correct the immunodeficiency that accompanied this disease and which occurs as a consequence of anticancer therapy. Placebo (saline injections) were administered to 14 subjects.
Laboratory measurements (data in Table 8 to 10) were performed one day before and compared to values obtained three days after injection of Bestim.

[4] = test system: dogs; experiment: Acute toxicity, single intramuscular dose, dogs; assay type: in vivo; details: single 500.0 mg/kg intramuscular, 14 days
Experimental: as §1
Acute toxicity: Rodents (mice and rats) and dogs were randomized into groups of equal numbers of males and females. Animals were inspected daily for 14 days after a single dose of Bestim (intramuscular):
Body weight, overall appearance and behavior were evaluated each day and, at the end of two weeks, macroscopic and histopathological examinations of the internal organs (heart, lungs, pleural and peritoneal cavities, muscles, stomach, small and large intestine, liver, spleen, pancreas, kidneys, bladder, thyroid, brain, skin and testes/ovaries) of all animals were conducted.

N[C@@H](CCC(=O)N[C@@H](Cc1c[nH]c2ccccc12)C(=O)O)C(=O)O [Bestim, γ-L-glutamyl-L-tryptophan]
morphological appearance of all organs, macroscopic and histological ([1]; rats, 1 and 100 mg/kg i.m. daily for 3 and 6 months): normal
body weight ([1]; rats, both doses (1 and 100 mg/kg i.m. daily)): slight increase in body weight
tested dose relative to expected doses for therapeutic trials ([1]; repeated administration): ~100 fold
Lymphocytes ([2]; After Bestim Therapy): 1370 per mm^3
T-Lymphocytes (CD3) ([2]; After Bestim Therapy): 75%
T-helper lymphocytes (CD4) ([2]; After Bestim Therapy): 50%
White blood cells ([2]; After Bestim Therapy (5 daily i.m. 0.1 mg)): 9.8 × 10^3 per mm^3
Lymphocytes ([2]; Before Therapy): 560 per mm^3
T-Lymphocytes (CD3) ([2]; Before Therapy): 23%
T-helper lymphocytes (CD4) ([2]; Before Therapy): 11%
White blood cells ([2]; Before Therapy): 10.2 × 10^3 per mm^3
patients who subjectively felt better and were improved in the physician's opinion ([3]; 30 out of 34 cancer patients, 0.1 mg i.m. per day for 5 days): 88%
patients with negative changes in immunological parameters ([3]; cancer patients N = 34): 9%
patients with no significant change in immunological parameters ([3]; cancer patients N = 34): 18%
patients with positive changes in immunological parameters ([3]; cancer patients N = 34): 73%
Adhesion (%) ([3]; Bestim After): 47.6 ± 5.7%
B-cells ([3]; Bestim After): 240 ± 90 10^6 cells/L
B-cells (%) ([3]; Bestim After): 7.1 ± 2.2%
Blastransformation, LPS ([3]; Bestim After): 2738 ± 305
Blastransformation, PHA ([3]; Bestim After): 21661 ± 5674
Blastransformation, spontaneous ([3]; Bestim After): 434 ± 73
CD3 ([3]; Bestim After): 1940 ± 234 10^6 cells/L
CD3 (%) ([3]; Bestim After): 70 ± 4%
CD4 ([3]; Bestim After): 923 ± 114 10^6 cells/L
CD4 (%) ([3]; Bestim After): 35 ± 2%
CD4/CD8 ([3]; Bestim After): 1.16 ± 0.09
CD8 ([3]; Bestim After): 757 ± 75 10^6 cells/L
CD8 (%) ([3]; Bestim After): 29 ± 2%
Cationic proteins ([3]; Bestim After): 52.4 ± 3.3 Units
Chemiluminescence, luminol (induced) ([3]; Bestim After): 5294 ± 789
Chemiluminescence, luminol (spontaneous) ([3]; Bestim After): 827 ± 299
IgA ([3]; Bestim After): 4.1 ± 0.7 g/L
IgG ([3]; Bestim After): 14.4 ± 1.0 g/L
IgM ([3]; Bestim After): 2.2 ± 0.4 g/L
Myeloperoxidase activity ([3]; Bestim After): 479 ± 97 Units
NBT reduction test ([3]; Bestim After): 160 ± 21 Units
NK activity (%) ([3]; Bestim After): 28 ± 1.5%
NK-cells ([3]; Bestim After): 267 ± 32 10^6 cells/L
NK-cells (%) ([3]; Bestim After): 12.0 ± 1.7%
Stimulation index, LPS ([3]; Bestim After): 7.4 ± 0.7
Stimulation index, PHA ([3]; Bestim After): 48.9 ± 10.3
Adhesion (%) ([3]; Bestim Before): 49.6 ± 5.9%
B-cells ([3]; Bestim Before): 152 ± 58 10^6 cells/L
B-cells (%) ([3]; Bestim Before): 5.0 ± 1.3%
Blastransformation, LPS ([3]; Bestim Before): 2328 ± 438
Blastransformation, PHA ([3]; Bestim Before): 5998 ± 1745
Blastransformation, spontaneous ([3]; Bestim Before): 373 ± 63
CD3 ([3]; Bestim Before): 1430 ± 183 10^6 cells/L
CD3 (%) ([3]; Bestim Before): 65 ± 4%
CD4 ([3]; Bestim Before): 582 ± 54 10^6 cells/L
CD4 (%) ([3]; Bestim Before): 28 ± 2%
CD4/CD8 ([3]; Bestim Before): 1.04 ± 0.08
CD8 ([3]; Bestim Before): 572 ± 53 10^6 cells/L
CD8 (%) ([3]; Bestim Before): 25 ± 2%
Cationic proteins ([3]; Bestim Before): 49.9 ± 5.9 Units
Chemiluminescence, luminol (induced) ([3]; Bestim Before): 6991 ± 2101
Chemiluminescence, luminol (spontaneous) ([3]; Bestim Before): 475 ± 141
IgA ([3]; Bestim Before): 4.5 ± 0.8 g/L
IgG ([3]; Bestim Before): 14.2 ± 1.0 g/L
IgM ([3]; Bestim Before): 1.9 ± 0.4 g/L
Myeloperoxidase activity ([3]; Bestim Before): 467 ± 87 Units
NBT reduction test ([3]; Bestim Before): 157 ± 19 Units
NK activity (%) ([3]; Bestim Before): 29 ± 1.3%
NK-cells ([3]; Bestim Before): 256 ± 44 10^6 cells/L
NK-cells (%) ([3]; Bestim Before): 13.4 ± 2.3%
Stimulation index, LPS ([3]; Bestim Before): 7.6 ± 0.6
Stimulation index, PHA ([3]; Bestim Before): 15.9 ± 4.5
deaths [4]: No deaths were observed
general appearance, behavior, body weight, hematological, biochemical and physiological indices, macroscopic and histopathological examination of internal organs [4]: all within normal limits
